Source: PMC9918900, “New Succinimide–Thiazolidinedione Hybrids as Multitarget Antidiabetic Agents: Design, Synthesis, Bioevaluation, and Molecular Modelling Studies” (Molecules, 2023)

Experiments:
[1] = target: α-glucosidase; assay: in vitro α-glucosidase inhibitory activity; assay type: biochemical, Homo sapiens
Experimental: The inhibitory analyses for α-glucosidase were carried out in accordance with the protocols reported in the literature; the inhibitory activities of the synthesized hybrids were calculated utilizing screening assay tools.

[2] = target: T1, PTP1B (Homo sapiens, UniProt P18031); assay: PTP1B assay (pNPP substrate); assay type: biochemical
T1 sequence (P18031 1-435): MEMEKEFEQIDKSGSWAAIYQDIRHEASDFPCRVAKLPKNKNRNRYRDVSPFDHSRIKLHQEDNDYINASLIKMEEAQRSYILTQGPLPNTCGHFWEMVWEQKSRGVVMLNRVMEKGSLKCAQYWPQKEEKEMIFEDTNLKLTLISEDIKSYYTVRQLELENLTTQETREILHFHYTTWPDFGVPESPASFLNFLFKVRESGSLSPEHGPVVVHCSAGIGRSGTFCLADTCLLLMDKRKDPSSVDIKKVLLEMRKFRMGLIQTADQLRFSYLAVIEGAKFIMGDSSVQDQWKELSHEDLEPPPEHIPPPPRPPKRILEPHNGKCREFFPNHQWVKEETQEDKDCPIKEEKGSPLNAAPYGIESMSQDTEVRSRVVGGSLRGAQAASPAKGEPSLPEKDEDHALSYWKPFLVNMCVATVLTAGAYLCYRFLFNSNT
Experimental: The aforementioned newly synthesize succinimides and thiazolidinedione hybrids were tested against the PTP1B enzyme to determine their ability to inhibit the negative regulation of insulin as well as leptin signaling. The PTP1B test was performed with a small modification to the method described in the publications. The enzyme efficiency was evaluated using […] (pNPP) as a substrate. For the buffer solution, 0.5 millimolar (mM) of ethylene diamine tetraacetic acid (EDTA), 1 mM of mercaptoethanol, 0.55 mM of dithiothreitol (DTT), and 12.49 mM of TRIS hydrochloride (ph = 7.4) were used. The experiment was carried out by mixing 10.0 μL of the test compound solutions with 20.0 μL of the enzyme (1 μg/mL), subsequently injecting 40.0 μL of 4.0 mM 4-nitrophenyl dihydrogen phosphate in 130.5 μL of the prescribed buffer in a microplate well at 37 °C for 10 min. pNP was formed during the enzymatic process, which was monitored for 30 min. The IC50 values were derived using a non-linear regression analysis of the fraction of the product generated vs. the log of the inhibitory concentration.

[3] = tested on: streptozotocin-induced diabetic rats; assay: in vivo antidiabetic activity, fasting plasma glucose level; set-up: species or system Wistar rats; settings: STZ-induced diabetic rats, 28th day
Experimental: (§1) The antidiabetic activity of the synthesized compound 10d was evaluated using a streptozotocin-induced diabetic rats model.
(§2) Male Wistar rats weighing 150 to 230 gm were used for the study which were housed in polyacrylic cages (no more than six animals per cage) with dimensions of 38 × 23 × 10 cm and maintained under standard laboratory conditions with a dark/light cycle of 14 h of dark and 10 h of light at a temperature of 25 °C. The animals were provided with a standard diet (dry pellet) and water ad libitum. Before the start of the experimental procedures, the rats were acclimatized to laboratory conditions for 10 days. All the experiments were approved and performed as per the guidelines of the Departmental Research Ethics Committee under letter No. DREC/050 [49].
(§3) Non-insulin-dependent diabetes mellitus was induced in fasted rats weighing 150–230 gm using a single dose of streptozotocin (STZ) at a dose of 60 mg/kg intraperitoneally after 15 min of the administration of nicotinamide at a 120 mg/kg dose i.p. Nicotinamide was prepared in normal saline while in citrate buffer (pH 4.5), STZ was prepared. After the induction of diabetes, the increase in the plasma glucose level was measured at 72 h and then measured on the 7th day to confirm hyperglycemia. For the diagnosis of diabetes, the threshold value of the fasting plasma glucose level was considered to be more than 126 mg/dl. For the study, only the animals with permanent NIIDM were utilized.
The animals were classified into 5 groups with 6 animals in each group (n = 6). […] The fasting glucose concentration was measured on the 0, 7th, 14th, and 28th day of the administration of the extract. During the experimental tenure, the weights of the rats were determined daily and the mean change was recorded.

[4] = tested on: streptozotocin-induced diabetic rats; assay: effect on serum lipid profile of diabetic animals; assay type: in vivo, Wistar rats; settings: compared to diabetic control group
Experimental: as §1, §2, §3
(§4) The animals were classified into 5 groups with 6 animals in each group (n = 6). Group I comprised of normal control rats which were daily administered drinking water only; group II served as diabetic control rats (disease group); group III served as the positive control and were administered 0.5 mg/kg of the standard drug glibenclamide; and group IV and V served as the test group rats and were administered the test compound 10d at 10 mg/kg and 20 mg/kg, respectively, for twenty-eight days. The fasting glucose concentration was measured on the 0, 7th, 14th, and 28th day of the administration of the extract. During the experimental tenure, the weights of the rats were determined daily and the mean change was recorded.
The animals were euthanized (sacrificed) via cervical dislocation on the 28th day to observe the biochemical parameters. The parameters studied were triglyceride (TGL), cholesterol, low-density lipoprotein, and high-density lipoprotein (LDL and HDL). The Minias Globe Diagnostic kits were used for cholesterol and TGL. Semi-autoanalyzers were used for the analysis. The serum samples from the rats were also checked for alanine aminotransferase (ALT), aspartate aminotransferase (AST), lactate dehydrogenase (LDH), serum alkaline phosphatase (ALP), and creatinine and urea levels utilizing commercially available kits of Crest Biosystems. The statistical analysis was also performed as per the previous procedure.

[5] = tested on: streptozotocin-induced diabetic rats; assay: serum insulin level estimation; assay type: in vivo, Wistar rats; set-up: unit not given here; settings: for Insulin Level (Mean ±SEM), Final Reading: 28th day
Experimental: as §3, §4
After the 28th day of treatment with the test compound 10d, the blood samples were taken for the determination of the insulin levels, which were measured with the help of GLAZYME INSULIN-EIA TEST.

In the case of CC(C)(C=C1SC(=O)N(C(=O)CN2CCOCC2)C1=O)C1CC(=O)N(Cc2ccccc2)C1=O (stereo not shown) [10d], the IC50 [1] is reported as 10 µM, the “% α-Glucosidase Inhibition” value ([1]; 31.25 µM) is reported as 67.10 ± 0.95% and the “% α-Glucosidase Inhibition” value ([1]; 62.5 µM) is reported as 72.26 ± 0.77%. For the same molecule, the “% α-Glucosidase Inhibition” value ([1]; 125 µM) was 77.93 ± 0.90%, the “% α-Glucosidase Inhibition” value ([1]; 250 µM) was 83.83 ± 0.66% and the “% α-Glucosidase Inhibition” value ([1]; 500 µM) was 88.43 ± 1.26%. It also gave an IC50 [2] of 3.64 µM, an inhibition at 31.25 µM ([2]; 31.25 µM) of 71.8% and an inhibition at 62.5 µM ([2]; 62.5 µM) of 74.7%. The inhibition at 125 µM ([2]; 125 µM) was 79%, the inhibition at 250 µM ([2]; 250 µM) was 84.5% and the inhibition at 500 µM ([2]; 500 µM) was 89.88 ± 0.89%. The blood glucose level ([3]; 10 mg/kg) was 93.15 mg/dL, the blood glucose level ([3]; 20 mg/kg) was 70.60 mg/dL and the HDL level [4] was “greater than before”. The LDL in serum [4] was “significant decline”, the “total cholesterol level in serum” value [4] was “significant decline” and the triglyceride in serum [4] was “significant decline”. The “Insulin Level (Mean ±SEM), Initial Reading” value ([5]; 10mg (10 mg/kg) group) was 0.81 ± 0.25, the “Insulin Level (Mean ±SEM), Final Reading” value ([5]; 10mg (10 mg/kg) group) was 0.65 ± 0.57 and the “Insulin Level (Mean ±SEM), Initial Reading” value ([5]; 20mg (20 mg/kg) group) was 0.76 ± 0.38. The “Insulin Level (Mean ±SEM), Final Reading” value ([5]; 20mg (20 mg/kg) group) was 0.76 ± 0.81.
